According to US20240192197A1, “NOVEL SCREENING SYSTEM FOR DRUG TARGET ANTAGONIST BASED ON CELL LIFE/DEATH PHENOTYPE” (CENTER FOR EXCELLENCE IN MOLECULAR CELL SCIENCE, CHINESE …, priority 2021, published 2024):

Molecular target: T1, FKBP12(F36V)-ΔCASP9 fusion protein (Homo sapiens, UniProt P55211+P62942, F37V)
T1 construct: expressed in transfected cells
Experiment: Verification of screening cell lines: AP1903-induced death of cells expressing target protein-FKBP12(F36V)-ΔCASP9 fusion
Assay type: cell-based
Settings: no target protein degradation agent present
Description: The screening system of the F-C fusion protein of the present invention can be applied to important targets of various diseases.

T1 sequence (P62942+P55211 fused P62942:F37V): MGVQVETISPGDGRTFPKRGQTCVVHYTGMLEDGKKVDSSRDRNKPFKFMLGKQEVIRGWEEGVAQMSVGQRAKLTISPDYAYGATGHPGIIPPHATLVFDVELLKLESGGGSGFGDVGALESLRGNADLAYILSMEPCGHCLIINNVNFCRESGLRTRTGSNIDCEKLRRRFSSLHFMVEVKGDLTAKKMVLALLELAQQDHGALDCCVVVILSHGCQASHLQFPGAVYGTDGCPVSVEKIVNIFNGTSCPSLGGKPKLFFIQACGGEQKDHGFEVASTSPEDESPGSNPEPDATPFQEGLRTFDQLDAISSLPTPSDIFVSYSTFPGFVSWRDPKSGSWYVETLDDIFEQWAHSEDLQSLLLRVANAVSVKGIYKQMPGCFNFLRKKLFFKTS

## CC[C@H](C(=O)N1CCCC[C@H]1C(=O)O[C@H](CCc1ccc(OC)c(OC)c1)c1cccc(OCC(=O)NCCNC(=O)COc2cccc([C@@H](CCc3ccc(OC)c(OC)c3)OC(=O)[C@@H]3CCCCN3C(=O)[C@@H](CC)c3cc(OC)c(OC)c(OC)c3)c2)c1)c1cc(OC)c(OC)c(OC)c1 [AP1903]
  state of cells expressing target protein-FKBP12(F36V)-ΔCASP9 fusion after AP1903: cells are dead
